Source: PMC11897524 (Frontiers in Pharmacology, 2025)

Tests used:
ALK = ALK (Homo sapiens, UniProt Q9UM73); assay: SelectScreen Z′-LYTE kinase assay; format: biochemical
Experimental: (§1) The kinase selectivity profile of BST-4 was performed by the SelectScreen kinase profiling service (Thermo Fisher Scientific). Kinase selectivity assay was performed using Z′-LYTE ™ screening protocol kit. Briefly, the test compounds were screened in 1% DMSO (final). For 10-point titrations, perform a 3-fold dilution starting at a starting concentration of 50 µM. Then 2.5 µL 4× test compound, 2.4 µL kinase buffer, 5 µL 2× kinase mixture and 2.5 µL 4× ATP solution was added in black 384-well plate. After shaking for 30 s, the plates were incubated for 60 min at room temperature. Add developing reagent solution and shake the plate for 30 s, then incubate for 1 h at room temperature. The Fluorescence intensity per well was read using a fluorescence plate reader. SelectScreen® Kinase Profiling Service used XLfit from IDBS. The dose response curve was curve fit to model number 205 (sigmoidal dose-response model) and inhibition rates were calculated. 50% inhibition was used as a activity threshold. IC50 values were calculated based on curve fitting.

BMX = BMX (Homo sapiens, UniProt P51813); assay: SelectScreen Z′-LYTE kinase assay; format: biochemical
Experimental: as §1

CSK = CSK (Homo sapiens, UniProt P41240); assay: SelectScreen Z′-LYTE kinase assay; format: biochemical
Experimental: as §1

EPHA5 = EPHA5 (Homo sapiens, UniProt P54756); assay: SelectScreen Z′-LYTE kinase assay; format: biochemical
Experimental: as §1

EPHB2 = EPHB2 (Homo sapiens, UniProt P29323); assay: SelectScreen Z′-LYTE kinase assay; format: biochemical
Experimental: as §1

FER = FER (Homo sapiens, UniProt P16591); assay: SelectScreen Z′-LYTE kinase assay; format: biochemical
Experimental: as §1

FGFR3 = FGFR3 (Homo sapiens, UniProt P22607); assay: SelectScreen Z′-LYTE kinase assay; format: biochemical
Experimental: as §1

IGF1R = IGF1R (Homo sapiens, UniProt P08069); assay: SelectScreen Z′-LYTE kinase assay; format: biochemical
Experimental: as §1

INSR = INSR (Homo sapiens, UniProt P06213); assay: SelectScreen Z′-LYTE kinase assay; format: biochemical
Experimental: as §1

INSRR = INSRR (Homo sapiens, UniProt P14616); assay: SelectScreen Z′-LYTE kinase assay; format: biochemical
Experimental: as §1

LTK = LTK (Homo sapiens, UniProt P29376); assay: SelectScreen Z′-LYTE kinase assay; format: biochemical
Experimental: as §1

TNK2 = TNK2 (Homo sapiens, UniProt Q07912); assay: SelectScreen Z′-LYTE kinase assay; format: biochemical
Experimental: as §1

TYK2 = TYK2 (Homo sapiens, UniProt P29597); assay: SelectScreen Z′-LYTE kinase assay; format: biochemical
Experimental: as §1

BRD3 = BRD3 (Homo sapiens, UniProt Q15059); assay: Binding affinity to BET and STAT family members
STAT5b = STAT5b (Homo sapiens, UniProt P51692); assay: Binding affinity to BET and STAT family members
c-myc mRNA = assay: RT-qPCR of c-myc mRNA in CAKI-2 cells; format: cell-based, human; details: 24 h, different concentrations
Experimental: This method was performed as previously reported. Briefly, the CAKI-2 cells were seeded into 6-well plates and cultured overnight, and treated with different concentrations of BST-4 for 24 h. RNA was extracted from cells and tissues using Trizol reagent and reverse transcribed using PrimeScriptRTase. cDNA was used for RT-qPCR SYBR Green assays (Takara). The relative levels of c-myc mRNA were calculated as [(c-myc mRNA in the treatment group)/(β-actin mRNA in the treatment group)]/[(c-myc mRNA in the control group)/(β-actin mRNA in the control group).

STAT3 [1] = molecular target: T1, STAT3 (Homo sapiens, UniProt P40763); assay: Microscale thermophoresis (MST) assay; format: binding; set-up: purchased Abcam
Experimental: The MST experiments were performed using the Monolith NT.115 instrument. BRD4 and STAT3 proteins were labeled with the Lys labeling kit at the final concentration of 100 nM. The compounds, previously suspended in 100% DMSO, were diluted in a buffer containing 20 mM Tris·HCl (pH 7.5), 100 mM NaCl, and 3 mM DTT, achieving a final DMSO concentration of 5%. The compounds were gradient-diluted in 1:1 dilution and starting from 100 μM. The samples were loaded into MST-standard glass capillaries. All the measurements were performed in triplicate using automatically assigned 50% MST power and 20% LED power. Data analysis was performed using GraphPad Prism 7.0 software.

BRD4 = BRD4 (Homo sapiens, UniProt O60885); assay: NanoBRET assay in HEK293T cells; format: cell-based; set-up: NanoLuc BRD4/STAT3 FL Fusion Vector DNA; expressed in transfected cells; host or cells: HEK293T
Experimental: (§2) The method was performed as previously reported ([Horai et al., 2024]). Briefly, HEK293T cells were seeded in dishes and allow the cells to attach and recover for overnight. The mixture of Histone H4 HaloTag Fusion vector DNA, NanoLuc BRD4/STAT3 FL Fusion Vector DNA, opti-MEM, and FuGENE HD was added dropwise to the HEK293T cells followed by incubation for 20–24 h at 37°C and 5% CO2 and allow the proteins to express. The cells were collected and re-seeded in 384 well plates. HaloTag NanoBRET 618 Ligand was added to plate and allow the cells to attach and recover for 4 h. Serially diluted compounds were transferred to the plate and incubated the plate overnight. Then NanoBRET Nano-Glo Substrate in Opti-MEM was added, and shake plate to mix. The donor emission (450 nm) and acceptor emission (610 nm), BRET signal, were measured within 10 min of substrate addition using microplate reader (Envision, PerkinElmer). Data analysis was done by measuring the ratio of acceptor emission to donor emission (BRET ratio). IC50 values and curve fits were obtained using GraphPad Prism 7.0 software.

STAT3 [2] = molecular target: T1, STAT3; assay: NanoBRET assay in HEK293T cells; format: cell-based; set-up: NanoLuc BRD4/STAT3 FL Fusion Vector DNA; expressed in transfected cells; host or cells: HEK293T
Experimental: as §2

Sequence of INSR (P06213 28-1382): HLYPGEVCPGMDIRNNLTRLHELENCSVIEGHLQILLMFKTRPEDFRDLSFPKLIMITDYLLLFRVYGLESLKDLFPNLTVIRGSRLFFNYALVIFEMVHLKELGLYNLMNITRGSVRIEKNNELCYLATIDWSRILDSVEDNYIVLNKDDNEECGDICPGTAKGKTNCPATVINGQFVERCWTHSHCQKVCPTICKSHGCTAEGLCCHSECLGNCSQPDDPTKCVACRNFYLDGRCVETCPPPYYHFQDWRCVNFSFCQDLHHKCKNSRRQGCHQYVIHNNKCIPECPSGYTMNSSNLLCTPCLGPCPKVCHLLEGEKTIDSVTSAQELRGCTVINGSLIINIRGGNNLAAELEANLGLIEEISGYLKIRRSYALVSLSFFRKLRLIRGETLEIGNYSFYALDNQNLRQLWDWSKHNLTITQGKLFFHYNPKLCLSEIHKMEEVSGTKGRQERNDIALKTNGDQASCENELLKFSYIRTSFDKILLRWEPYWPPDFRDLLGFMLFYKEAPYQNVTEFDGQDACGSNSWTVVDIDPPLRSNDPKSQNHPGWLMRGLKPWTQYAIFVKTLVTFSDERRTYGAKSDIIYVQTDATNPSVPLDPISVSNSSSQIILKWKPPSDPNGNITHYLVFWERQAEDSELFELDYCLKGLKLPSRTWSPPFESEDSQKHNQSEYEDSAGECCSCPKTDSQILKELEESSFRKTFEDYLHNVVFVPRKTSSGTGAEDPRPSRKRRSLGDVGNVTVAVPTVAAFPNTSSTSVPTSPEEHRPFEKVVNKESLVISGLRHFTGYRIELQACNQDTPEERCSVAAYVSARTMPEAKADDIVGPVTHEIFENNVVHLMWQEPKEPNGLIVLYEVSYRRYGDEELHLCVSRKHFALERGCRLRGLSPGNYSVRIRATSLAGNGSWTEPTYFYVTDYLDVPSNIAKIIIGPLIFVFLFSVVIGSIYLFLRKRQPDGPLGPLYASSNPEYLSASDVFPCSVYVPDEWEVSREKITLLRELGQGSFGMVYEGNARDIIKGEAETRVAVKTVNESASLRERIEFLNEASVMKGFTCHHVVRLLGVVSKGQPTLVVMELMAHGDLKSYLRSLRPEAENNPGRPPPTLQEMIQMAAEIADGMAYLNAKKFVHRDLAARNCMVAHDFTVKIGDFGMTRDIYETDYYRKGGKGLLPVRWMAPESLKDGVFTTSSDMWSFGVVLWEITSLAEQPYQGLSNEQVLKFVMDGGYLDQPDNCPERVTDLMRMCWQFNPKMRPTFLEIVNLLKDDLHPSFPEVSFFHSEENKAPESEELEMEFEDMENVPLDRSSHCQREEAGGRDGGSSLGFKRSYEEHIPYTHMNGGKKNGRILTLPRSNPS
Sequence of EPHB2 (P29323 19-1055): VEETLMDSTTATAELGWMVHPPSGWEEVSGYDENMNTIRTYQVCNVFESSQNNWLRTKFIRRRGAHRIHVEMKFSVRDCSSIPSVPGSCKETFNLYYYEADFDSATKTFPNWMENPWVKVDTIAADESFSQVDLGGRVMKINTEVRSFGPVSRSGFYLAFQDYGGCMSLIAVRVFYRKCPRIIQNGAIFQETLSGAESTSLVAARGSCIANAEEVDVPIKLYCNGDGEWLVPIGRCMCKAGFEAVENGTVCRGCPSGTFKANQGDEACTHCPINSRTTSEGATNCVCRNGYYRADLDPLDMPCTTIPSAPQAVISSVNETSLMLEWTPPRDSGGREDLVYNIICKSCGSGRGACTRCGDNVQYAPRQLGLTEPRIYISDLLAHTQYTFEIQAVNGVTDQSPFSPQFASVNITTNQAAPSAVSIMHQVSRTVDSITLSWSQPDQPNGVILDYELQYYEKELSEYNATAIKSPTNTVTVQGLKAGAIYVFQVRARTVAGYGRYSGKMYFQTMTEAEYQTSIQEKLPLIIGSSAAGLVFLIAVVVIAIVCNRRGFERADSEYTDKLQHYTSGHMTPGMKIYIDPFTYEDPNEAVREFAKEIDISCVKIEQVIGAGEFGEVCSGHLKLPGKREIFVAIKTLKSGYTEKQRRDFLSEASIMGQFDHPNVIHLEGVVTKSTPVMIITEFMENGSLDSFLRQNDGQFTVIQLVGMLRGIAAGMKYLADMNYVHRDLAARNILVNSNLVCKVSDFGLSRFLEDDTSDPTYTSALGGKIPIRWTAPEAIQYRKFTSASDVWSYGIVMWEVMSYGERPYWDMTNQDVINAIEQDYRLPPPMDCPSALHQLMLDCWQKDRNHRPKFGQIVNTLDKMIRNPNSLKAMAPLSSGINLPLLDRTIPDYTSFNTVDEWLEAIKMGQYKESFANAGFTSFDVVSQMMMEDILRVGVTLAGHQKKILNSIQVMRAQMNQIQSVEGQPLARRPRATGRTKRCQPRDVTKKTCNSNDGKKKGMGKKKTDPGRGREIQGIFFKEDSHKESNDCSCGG
Sequence of TYK2 (P29597 whole entry): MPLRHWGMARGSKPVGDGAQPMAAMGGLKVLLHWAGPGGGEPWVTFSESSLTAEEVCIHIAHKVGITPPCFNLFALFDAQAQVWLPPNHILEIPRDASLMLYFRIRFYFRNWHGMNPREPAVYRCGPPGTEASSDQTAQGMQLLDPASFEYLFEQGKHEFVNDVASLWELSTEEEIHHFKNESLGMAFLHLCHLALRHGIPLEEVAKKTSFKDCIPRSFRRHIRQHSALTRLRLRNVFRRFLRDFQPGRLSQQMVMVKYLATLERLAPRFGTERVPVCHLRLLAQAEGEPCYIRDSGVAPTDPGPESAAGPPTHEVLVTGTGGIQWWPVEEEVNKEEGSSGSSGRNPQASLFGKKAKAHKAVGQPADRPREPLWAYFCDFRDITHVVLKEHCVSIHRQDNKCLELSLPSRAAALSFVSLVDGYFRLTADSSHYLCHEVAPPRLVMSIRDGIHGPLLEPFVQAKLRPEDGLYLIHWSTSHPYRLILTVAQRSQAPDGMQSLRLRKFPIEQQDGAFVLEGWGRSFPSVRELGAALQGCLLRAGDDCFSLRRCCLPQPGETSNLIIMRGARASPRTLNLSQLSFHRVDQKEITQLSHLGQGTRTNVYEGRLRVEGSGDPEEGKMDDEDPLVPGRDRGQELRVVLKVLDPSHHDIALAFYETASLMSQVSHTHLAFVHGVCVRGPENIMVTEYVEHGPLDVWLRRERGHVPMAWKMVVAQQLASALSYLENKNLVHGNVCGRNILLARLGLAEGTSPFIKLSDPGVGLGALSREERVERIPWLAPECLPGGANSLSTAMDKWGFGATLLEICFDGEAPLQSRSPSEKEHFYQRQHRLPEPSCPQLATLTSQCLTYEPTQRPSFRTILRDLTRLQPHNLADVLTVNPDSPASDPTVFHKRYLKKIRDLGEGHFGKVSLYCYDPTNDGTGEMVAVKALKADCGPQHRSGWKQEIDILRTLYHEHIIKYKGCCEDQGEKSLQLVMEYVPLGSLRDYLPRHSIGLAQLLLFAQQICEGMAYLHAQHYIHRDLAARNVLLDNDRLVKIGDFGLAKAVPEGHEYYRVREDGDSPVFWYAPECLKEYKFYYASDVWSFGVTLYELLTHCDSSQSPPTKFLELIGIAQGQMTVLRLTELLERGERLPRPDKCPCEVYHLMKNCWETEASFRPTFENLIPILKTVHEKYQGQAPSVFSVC
Sequence of LTK (P29376 17-864): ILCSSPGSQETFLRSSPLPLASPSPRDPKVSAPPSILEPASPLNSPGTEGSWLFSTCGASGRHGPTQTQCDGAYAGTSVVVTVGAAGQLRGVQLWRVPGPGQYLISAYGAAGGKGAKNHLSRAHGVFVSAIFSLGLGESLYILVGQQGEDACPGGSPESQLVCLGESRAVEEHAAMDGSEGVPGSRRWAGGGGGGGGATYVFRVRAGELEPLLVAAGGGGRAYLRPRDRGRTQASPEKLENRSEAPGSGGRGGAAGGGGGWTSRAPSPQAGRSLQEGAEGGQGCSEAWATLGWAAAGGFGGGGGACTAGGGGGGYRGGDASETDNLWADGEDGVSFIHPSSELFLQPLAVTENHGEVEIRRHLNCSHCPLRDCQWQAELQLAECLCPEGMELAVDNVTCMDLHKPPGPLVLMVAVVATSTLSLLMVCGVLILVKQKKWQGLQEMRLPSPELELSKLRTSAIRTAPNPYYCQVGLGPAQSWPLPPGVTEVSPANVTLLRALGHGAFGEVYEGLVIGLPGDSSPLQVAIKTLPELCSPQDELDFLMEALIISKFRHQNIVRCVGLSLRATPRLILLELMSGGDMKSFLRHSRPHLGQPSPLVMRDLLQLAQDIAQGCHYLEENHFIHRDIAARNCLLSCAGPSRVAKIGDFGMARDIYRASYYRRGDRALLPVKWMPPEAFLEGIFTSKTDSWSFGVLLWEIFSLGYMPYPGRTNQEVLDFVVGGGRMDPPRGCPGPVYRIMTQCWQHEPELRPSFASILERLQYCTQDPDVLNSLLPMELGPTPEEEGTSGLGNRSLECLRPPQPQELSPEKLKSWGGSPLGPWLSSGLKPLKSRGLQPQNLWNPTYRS
Sequence of BMX (P51813 whole entry): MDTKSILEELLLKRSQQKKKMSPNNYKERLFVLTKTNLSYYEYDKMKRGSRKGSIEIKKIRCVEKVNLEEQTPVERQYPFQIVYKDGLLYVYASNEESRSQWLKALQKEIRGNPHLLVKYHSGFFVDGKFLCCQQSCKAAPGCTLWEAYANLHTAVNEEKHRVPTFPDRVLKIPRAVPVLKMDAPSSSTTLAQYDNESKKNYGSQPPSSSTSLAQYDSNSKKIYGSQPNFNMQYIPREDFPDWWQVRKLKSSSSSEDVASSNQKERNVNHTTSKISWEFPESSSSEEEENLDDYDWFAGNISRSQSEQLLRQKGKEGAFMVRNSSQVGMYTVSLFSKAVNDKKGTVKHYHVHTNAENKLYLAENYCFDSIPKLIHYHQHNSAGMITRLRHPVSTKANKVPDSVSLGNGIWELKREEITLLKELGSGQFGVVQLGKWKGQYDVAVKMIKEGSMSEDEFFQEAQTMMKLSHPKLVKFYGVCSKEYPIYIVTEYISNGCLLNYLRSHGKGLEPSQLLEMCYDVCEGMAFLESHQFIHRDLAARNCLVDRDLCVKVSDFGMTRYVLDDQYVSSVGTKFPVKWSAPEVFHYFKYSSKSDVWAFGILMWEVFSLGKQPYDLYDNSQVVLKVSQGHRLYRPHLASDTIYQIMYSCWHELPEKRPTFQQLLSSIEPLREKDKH

IC50 (ALK): > 10 µM
inhibition at 1 µM (ALK): 0.72%
IC50 (BMX): > 10 µM
inhibition at 1 µM (BMX): 3.05%
IC50 (CSK): > 10 µM
inhibition at 1 µM (CSK): 0.74%
IC50 (EPHA5): > 10 µM
inhibition at 1 µM (EPHA5): 3.17%
IC50 (EPHB2): > 10 µM
inhibition at 1 µM (EPHB2): 0.51%
IC50 (FER): > 10 µM
inhibition at 1 µM (FER): 0.03%
IC50 (FGFR3): > 10 µM
inhibition at 1 µM (FGFR3): 2.84%
IC50 (IGF1R): > 10 µM
inhibition at 1 µM (IGF1R): 0.91%
IC50 (INSR): > 10 µM
inhibition at 1 µM (INSR): 2.53%
IC50 (INSRR): > 10 µM
inhibition at 1 µM (INSRR): 0.62%
IC50 (LTK): > 10 µM
inhibition at 1 µM (LTK): 0.21%
IC50 (TNK2): > 10 µM
inhibition at 1 µM (TNK2): 0.93%
IC50 (TYK2): > 10 µM
inhibition at 1 µM (TYK2): 5.33%
Kd (BRD3): > 10 µM
Kd (STAT5b): > 10 µM
STAT3 binding affinity relative to CJ-1383 (STAT3 [1]; Kd ratio vs CJ-1383, MST): 211 fold
Kd (STAT3 [1]; MST): 0.00428 ± 0.00059 µM
IC50 (BRD4): 0.00258 ± 7e-05 µM
IC50 (STAT3 [2]): 0.00517 ± 9e-05 µM
SMILES: CCS(=O)(=O)Cc1cnc(Oc2c(F)cc(F)cc2OCCCCOc2ccc(/C=C/c3cc(OC)cc(OC)c3)cc2)c(-c2cc(C)c3c(=O)[nH]ccn23)c1 [BST-4]
expression of c-myc mRNA in CAKI-2 cells (c-myc mRNA): strongly dose-dependent downregulated
